The values below come from PubChem BioAssay (NCI).

Test systems include ACHN renal; HS 578T breast; MDA-MB-231 breast; MDA-MB-435; NCI-H460 lung; OVCAR-3 ovarian; PC-3 prostate; SF-268 CNS; SNB-75 CNS; SR leukemia.
Assay in all cases: DTP human tumour cell line panel, 48 h

SMILES strings stand for the structures.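 The compound was tested at five concentrations on cells cultured in 96-well plates, with a 48-hour exposure period. GI50 marks 50% less growth. TGI marks complete inhibition of growth.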

With `CC1(C)N=C(N)N=C(N)N1c1cccc(CCc2ccccc2)c1`, the GI50 with ACHN renal was 13.4 µM; in the assay on HS 578T breast, 22.4 µM; in the assay with MDA-MB-231 breast, 4.27 µM; with MDA-MB-435, 0.154 µM; with NCI-H460 lung it was 0.257 µM; in the assay on OVCAR-3 ovarian, 0.44 µM. The GI50 was 0.11 µM in the assay with PC-3 prostate, 0.34 µM with SF-268 CNS, 0.707 µM with SNB-75 CNS and 0.282 µM in the assay with SR leukemia. The TGI was over 100 µM in the assay with ACHN renal; over 100 µM in the assay with HS 578T breast; over 100 µM in the assay with MDA-MB-231 breast; 35.4 µM with MDA-MB-435; over 39.3 µM with NCI-H460 lung; 24.9 µM in the assay with OVCAR-3 ovarian. Also, the TGI is over 59 µM in the assay on PC-3 prostate, 57.5 µM in the assay with SF-268 CNS, 46.4 µM with SNB-75 CNS and over 64.3 µM in the assay with SR leukemia.

For `CC1(C)C2CCC13C(=O)C1OC3(C2)C2C(=O)c3c(ccc4c3ccc3ccccc34)C(=O)C12` (stereo not drawn), the GI50 is 57.4 µM in the assay on ACHN renal; over 56.1 µM with HS 578T breast; over 37.2 µM in the assay on MDA-MB-231 breast; over 62.2 µM in the assay on MDA-MB-435; 57.3 µM in the assay on NCI-H460 lung; 40.7 µM in the assay with OVCAR-3 ovarian. Moreover, the GI50 in the assay on PC-3 prostate is over 66.5 µM; in the assay with SF-268 CNS, 70.5 µM; with SNB-75 CNS, over 65.8 µM; in the assay with SR leukemia it was 1.86 µM. Besides, the TGI was over 100 µM in the assay on ACHN renal; over 100 µM with HS 578T breast; over 53.2 µM in the assay with MDA-MB-231 breast; over 100 µM in the assay on MDA-MB-435; over 100 µM in the assay on NCI-H460 lung; over 100 µM in the assay with OVCAR-3 ovarian. Moreover, the TGI with PC-3 prostate was over 100 µM; in the assay with SF-268 CNS, over 100 µM; in the assay with SNB-75 CNS, over 100 µM; in the assay on SR leukemia it was 51 µM.

Regarding `Nc1ncc2ncn(C3CCC(CO)O3)c2n1` (stereo not drawn), the TGI in the assay on ACHN renal, in the assay with HS 578T breast, in the assay with MDA-MB-231 breast, with MDA-MB-435, in the assay on NCI-H460 lung and in the assay on OVCAR-3 ovarian was over 100 µM in each case. For the same compound, the TGI with PC-3 prostate, with SF-268 CNS, with SNB-75 CNS and in the assay with SR leukemia was over 100 µM throughout.

On to `Nn1c(-c2ccc(Cl)cc2)nc2c(-c3ccc(Cl)cc3)nc3ccc(Cl)cc3c2c1=O`, for which the GI50 was 5.42 µM in the assay on ACHN renal; 12.1 µM in the assay with HS 578T breast; 14.1 µM in the assay on MDA-MB-231 breast; over 100 µM with MDA-MB-435; 3.36 µM in the assay on NCI-H460 lung; 2.7 µM with OVCAR-3 ovarian. For the same compound, the GI50 in the assay on PC-3 prostate was 60.7 µM; in the assay on SF-268 CNS it was 5.18 µM; in the assay with SNB-75 CNS it was 4.79 µM; with SR leukemia, 4.08 µM. Moreover, the TGI in the assay on ACHN renal is 25.5 µM; with HS 578T breast, 85 µM; in the assay on MDA-MB-231 breast, 62.5 µM; in the assay on MDA-MB-435 it was over 100 µM; with NCI-H460 lung, over 100 µM; with OVCAR-3 ovarian, 8.68 µM. Further, the TGI is over 100 µM in the assay with PC-3 prostate, 72.3 µM in the assay with SF-268 CNS, 19.5 µM in the assay on SNB-75 CNS and 20.2 µM in the assay on SR leukemia.

Regarding `CN1CC[C@H](c2c(O)cc(O)c3c(=O)cc(-c4ccccc4Cl)oc23)[C@H](O)C1`, the GI50 with ACHN renal is 0.0316 µM; in the assay on HS 578T breast it was 0.0618 µM; in the assay on MDA-MB-231 breast, 0.23 µM; in the assay with MDA-MB-435, 0.0712 µM; in the assay on OVCAR-3 ovarian, 0.0546 µM; in the assay on PC-3 prostate, 0.0776 µM. Besides, the GI50 with SF-268 CNS was 0.0647 µM; with SNB-75 CNS, 0.053 µM; with SR leukemia it was 0.0045 µM. The TGI in the assay with ACHN renal was over 10 µM; with HS 578T breast, 0.398 µM; with MDA-MB-231 breast, over 10 µM; with MDA-MB-435, 0.26 µM; in the assay with NCI-H460 lung, over 10 µM; in the assay on OVCAR-3 ovarian it was over 10 µM. Moreover, the TGI with PC-3 prostate is over 2.59 µM; in the assay on SNB-75 CNS it was 0.155 µM; with SR leukemia, over 2.67 µM.

`COc1cc(/C=C2\SC(N3CCCCC3)=NC2=O)ccc1OCCCCCCOc1ccc(/C=C2\SC(N3CCCCC3)=NC2=O)cc1OC`: the GI50 in the assay with ACHN renal is 15.1 µM; in the assay with HS 578T breast, 3.74 µM; with MDA-MB-231 breast, 2.13 µM; in the assay with MDA-MB-435, 10.8 µM; with NCI-H460 lung, 6.84 µM; in the assay on OVCAR-3 ovarian it was 6.04 µM. Also, the GI50 is 12.4 µM in the assay on PC-3 prostate, 4.2 µM in the assay on SF-268 CNS, 2.34 µM with SNB-75 CNS and 9.16 µM in the assay with SR leukemia. Also, the TGI in the assay on ACHN renal came out at 34.2 µM; with HS 578T breast, 25.7 µM; in the assay with MDA-MB-231 breast, 21 µM; in the assay with MDA-MB-435, 79.1 µM; in the assay on NCI-H460 lung, 23.8 µM; with OVCAR-3 ovarian, 18.7 µM. The TGI with PC-3 prostate is 56.7 µM; with SF-268 CNS, 17.6 µM; in the assay with SNB-75 CNS it was 6.4 µM; with SR leukemia it was 65.8 µM.

For the compound `CCOc1ccc2cc(-c3nn(CC4CCNCC4)c4ncnc(N)c34)ccc2c1`, the GI50 is 15.1 µM in the assay on ACHN renal; 10.2 µM in the assay on HS 578T breast; 11.1 µM in the assay on MDA-MB-231 breast; 13.1 µM in the assay with MDA-MB-435; 16.8 µM with NCI-H460 lung; 18.1 µM with OVCAR-3 ovarian. For the same compound, the GI50 was 15.5 µM in the assay on PC-3 prostate, 12 µM in the assay with SF-268 CNS, 5.13 µM with SNB-75 CNS and 4.23 µM in the assay on SR leukemia. Further, the TGI in the assay with ACHN renal is 29.8 µM; in the assay on HS 578T breast, 43.4 µM; in the assay on MDA-MB-231 breast, 25.5 µM; with MDA-MB-435 it was 25.8 µM; in the assay with NCI-H460 lung it was 32.8 µM; with OVCAR-3 ovarian, 43.8 µM. Besides, the TGI in the assay with PC-3 prostate came to 41.9 µM; with SF-268 CNS, 28.2 µM; in the assay with SNB-75 CNS, 20.8 µM; with SR leukemia it was 19.6 µM.

On to `CCOC(=O)[C@@H]1CSC(CC)=C(C(=O)O)N1`, for which the GI50 in the assay with ACHN renal, in the assay on HS 578T breast, in the assay on MDA-MB-231 breast, with MDA-MB-435, in the assay on NCI-H460 lung and in the assay on OVCAR-3 ovarian was over 100 µM in each case. In addition, the GI50 in the assay on PC-3 prostate, in the assay with SF-268 CNS, in the assay with SNB-75 CNS and in the assay with SR leukemia was over 100 µM throughout. Further, the TGI in the assay with ACHN renal, with HS 578T breast, with MDA-MB-231 breast, with MDA-MB-435, in the assay with NCI-H460 lung and with OVCAR-3 ovarian was over 100 µM each time. Also, the TGI in the assay with PC-3 prostate, in the assay on SF-268 CNS, with SNB-75 CNS and in the assay with SR leukemia was over 100 µM in each case.

A word on the GI50: it is the concentration giving 50% growth inhibition. The TGI is the concentration giving total growth inhibition.
